These results are taken from ChEMBL document CHEMBL1121897, “Synthesis and antihypertensive activity of new 6-heteroaryl-3-hydrazinopyridazine derivatives” (J Med Chem, 1981).

The test system of data set [1] is Rattus norvegicus. Briefly: Relative potency of compound was measured in anesthetized rats after iv administration. In kind it is functional.
Data set [2] has as its system Rattus norvegicus. Briefly: Relative potency of compound was measured in conscious SH rats after po administration. In kind it is functional.
Data set [3] is described as follows: Acute toxicity was measured as LD50 in mice after ip administration. In kind it is organism-based. Conditions: mouse, in vivo.
The subject of data set [4] is Rattus norvegicus. Put plainly: Antihypertensive activity was measured as ED20 which is the dose lowered the normal arterial pressure in conscious SH rats by 20% after po administration. It counts as functional, Artery.
Data set [5] relates to Rattus norvegicus. Briefly: Hypotensive activity was measured as ED20 which is the dose lowered the normal arterial pressure in anesthetized rat by 20% after iv administration. It counts as functional, Artery.
For data set [6], the system named is Rattus norvegicus. Briefly: Hypotensive activity was measured as ED20 which is the dose lowered the normal arterial pressure in anesthetized rats by 20% after iv administration. In kind it is functional, Artery.
Data set [7] has as its system Rattus norvegicus. Briefly: Relative potency of compound was measured in anesthetized rats after iv administration. It counts as functional.
For data set [8], the system named is Rattus norvegicus. Put plainly: Hypotensive activity was measured as ED20 which is the dose lowered the normal arterial pressure in anesthetized rats by 20% after iv administration. In kind it is functional, Artery.
The test system of data set [9] is Rattus norvegicus. Briefly: Relative potency of compound was measured in anesthetized rats after ip administration. It counts as functional.
Data set [10] concerns Rattus norvegicus. Put plainly: Relative potency of compound was measured in conscious SH rats after po administration. In kind it is functional.
Data set [11] in a line: Acute toxicity was measured as LD50 in mice after ip administration. In kind it is organism-based. As to conditions: mouse, in vivo.
Data set [12] has as its system Rattus norvegicus. Briefly: Antihypertensive activity was measured as ED20 which is the dose lowered the normal arterial pressure in conscious SH rats by 20% after po administration. In kind it is functional, Artery.
Data set [13] relates to Rattus norvegicus. Briefly: Hypotensive activity was measured as ED20 which is the dose lowered the normal arterial pressure in anesthetized rats by 20% after ip administration. In kind it is functional, Artery.
Data set [14] concerns Rattus norvegicus. Briefly: Relative potency of compound was measured in anesthetized rats after ip administration. In kind it is functional.

The LD50 is the dose at which mortality reaches 50%. Higher therefore signals a less toxic substance. For `Cl.NNc1ccc(-n2cccc2)nn1`, the Relative potency is 1.06 with Rattus norvegicus [1] and 0.9 with Rattus norvegicus [2]. Further, in data set [3], the LD50 was 389 µmol/kg. The values for the ED20 in the data set with Rattus norvegicus [4] and in the data set with Rattus norvegicus [5] were 40.1 µM/kg and 0.423 µM/kg, respectively.

`CC(C)=NNc1ccc(-n2cccc2)nn1.Cl` returned an ED20 in the data set with Rattus norvegicus [6] of 4.65 µM/kg. Moreover, the Relative potency in the data set on Rattus norvegicus [7] was found to be 0.1.

In the data set with Rattus norvegicus [8], `Cc1ccc(C)n1-c1ccc(NN)nn1.Cl` registered an ED20 of 8.02 µM/kg. In the data set on Rattus norvegicus [9], this compound displayed a Relative potency of 0.06.

For `CC(C)=C/C(C)=N\Nc1ccc(-n2cccc2)nn1.Cl`, the ED20 in the data set with Rattus norvegicus [6] was determined as 1.77 µM/kg. The compound also came in with a Relative potency in the data set on Rattus norvegicus [7] of 0.25.

In turn, `NNc1ccc(-c2ccc(Cl)s2)nn1` showed an ED20 in the data set with Rattus norvegicus [8] of 9.51 µM/kg. In the data set with Rattus norvegicus [9], this compound gave a Relative potency of 0.19.

`CCc1nccn1-c1ccc(NN=C(C)C)nn1`: the Relative potency was determined as 3.54 in the data set on Rattus norvegicus [10] and 1.82 in the data set on Rattus norvegicus [7]. Besides, the ED20 turned out to be 0.247 µM/kg with Rattus norvegicus [6] and 10.2 µM/kg in the data set with Rattus norvegicus [12]. Also, in data set [11], the LD50 worked out at 508 µmol/kg.

`NNc1ccc(-n2c3ccccc3c3ccccc32)nn1` came in with a Relative potency in the data set with Rattus norvegicus [9] of less than 0.11.

Compound `NNc1ccc(-c2cccs2)nn1` yielded an ED20 with Rattus norvegicus [8] of 0.41 µM/kg. For the same compound, the Relative potency with Rattus norvegicus [9] was determined as 1.08. In data set [3], this compound came in with a 50% lethal dose (LD50) of 521 µmol/kg.

In the case of `Cc1nccn1-c1ccc(NN)nn1`, the figures for the ED20 in the data set on Rattus norvegicus [8] and with Rattus norvegicus [4] were 0.163 µM/kg and 7.42 µM/kg, respectively. Also, the Relative potency with Rattus norvegicus [9] is recorded as 2.75; in the data set on Rattus norvegicus [2], 4.88. The compound further returned an LD50 in data set [3] of 1020 µmol/kg.

In the data set with Rattus norvegicus [8], `NNc1ccc(-n2ccnc2)nn1` displayed an ED20 of 2.64 µM/kg. In the data set with Rattus norvegicus [9], this compound had a Relative potency of 0.17. Also, in data set [3], the 50% lethal dose (LD50) was determined as 853 µmol/kg.

As to `CCc1nccn1-c1ccc(NN)nn1`, the ED20 in the data set with Rattus norvegicus [8] was 0.313 µM/kg; with Rattus norvegicus [4], 14.3 µM/kg. In addition, the Relative potency with Rattus norvegicus [9] was determined as 1.43; in the data set with Rattus norvegicus [2], 2.52. This compound came in with an LD50 in data set [3] of 765 µmol/kg.

Consider `NNc1ccc(-n2cncn2)nn1`, for which the Relative potency in the data set with Rattus norvegicus [9] is given as 0.17. In data set [3], this compound registered an LD50 of 262 µmol/kg.

In the case of `NNc1ccc(-n2ccc3ccccc32)nn1`, the ED20 in the data set with Rattus norvegicus [8] was determined as 2.06 µM/kg. In the data set on Rattus norvegicus [9], this compound showed a Relative potency of 0.22. This compound gave an LD50 in [3] of 206 µmol/kg.

On to `NNc1ccc(-n2cccn2)nn1`, for which the ED20 in the data set with Rattus norvegicus [8] came out at 0.83 µM/kg; with Rattus norvegicus [4], 27.3 µM/kg. Also, the LD50 in data set [3] amounted to 387 µmol/kg. The compound also showed a Relative potency in the data set on Rattus norvegicus [10] of 1.32.

The compound `NNc1ccc(-n2cccc2)[n+]([O-])n1` had an ED20 with Rattus norvegicus [13] greater than 5.24 µM/kg. The Relative potency with Rattus norvegicus [14] is reported as less than 0.34.

Consider `CC(C)=NNc1ccc(-n2ccnc2C)nn1`, for which the Relative potency with Rattus norvegicus [10] is listed as 3.37; in the data set on Rattus norvegicus [7], 1.86. Further, the results for the ED20 in the data set on Rattus norvegicus [6] and in the data set on Rattus norvegicus [12] were 0.242 µM/kg and 10.7 µM/kg, respectively. The LD50 in [11] turned out to be 430 µmol/kg.

As for `N/N=c1\[nH][nH]/c(=N\N)c2ccccc12` [DIHYDRALAZINE], the values for the ED20 with Rattus norvegicus [13], in the data set on Rattus norvegicus [6] and in the data set on Rattus norvegicus [12] were 1.78 µM/kg, 0.449 µM/kg and 36.1 µM/kg, respectively. Moreover, the Relative potency in the data set with Rattus norvegicus [10] and in the data set with Rattus norvegicus [7] was 1 throughout. Besides, the median lethal dose (LD50) in data set [11] was 1080 µmol/kg.
